Blank lines part the entries; values can stand above or below the compound they belong to.
What was measured:
[1] = system: Integrin αVβ6-positive H2009 cells; assay: flow cytometric analysis of doxorubicin uptake; format: cell-based, human; details: 30 µM, 2 h, flow cytometry
[2] = system: Integrin αVβ6-positive H2009 cells; assay: cell viability assay; format: cell-based, human; details: 200 nM to 5 µM, 24 h exposure, 72 h post-incubation, CellTiter Glo
H2009 cells = details: ref personal communication, Drs. John D. Minna and Michael Peyton; cited from earlier work
αvβ6 = αvβ6 (Homo sapiens, UniProt P06756+P18564); assay: binding affinity for integrin αvβ6; details: data not shown
αvβ6, sequence (P06756 31-889 limits assumed): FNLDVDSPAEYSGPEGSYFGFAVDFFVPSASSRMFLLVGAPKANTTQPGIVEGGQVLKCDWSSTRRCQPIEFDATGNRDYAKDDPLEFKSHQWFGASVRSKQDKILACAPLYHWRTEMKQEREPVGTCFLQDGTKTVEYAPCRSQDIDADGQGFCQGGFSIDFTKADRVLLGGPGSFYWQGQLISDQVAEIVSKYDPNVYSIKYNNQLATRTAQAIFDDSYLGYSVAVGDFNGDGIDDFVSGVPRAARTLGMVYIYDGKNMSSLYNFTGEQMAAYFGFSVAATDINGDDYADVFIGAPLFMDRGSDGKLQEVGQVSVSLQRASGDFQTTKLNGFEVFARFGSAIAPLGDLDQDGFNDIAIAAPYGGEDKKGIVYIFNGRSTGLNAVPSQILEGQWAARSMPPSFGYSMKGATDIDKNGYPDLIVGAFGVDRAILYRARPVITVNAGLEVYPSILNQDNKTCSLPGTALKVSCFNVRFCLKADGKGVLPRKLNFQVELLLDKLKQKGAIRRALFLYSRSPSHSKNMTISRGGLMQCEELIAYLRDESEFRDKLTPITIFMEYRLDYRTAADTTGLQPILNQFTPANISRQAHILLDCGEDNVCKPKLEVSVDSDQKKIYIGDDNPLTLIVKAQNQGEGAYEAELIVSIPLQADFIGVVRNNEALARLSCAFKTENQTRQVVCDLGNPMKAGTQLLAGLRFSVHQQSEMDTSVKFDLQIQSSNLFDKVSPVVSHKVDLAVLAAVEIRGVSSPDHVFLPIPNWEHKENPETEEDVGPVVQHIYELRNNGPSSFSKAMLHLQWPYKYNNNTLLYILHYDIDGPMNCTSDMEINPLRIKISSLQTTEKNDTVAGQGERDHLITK
αvβ6, sequence (P06756 891-1048 partner limits assumed): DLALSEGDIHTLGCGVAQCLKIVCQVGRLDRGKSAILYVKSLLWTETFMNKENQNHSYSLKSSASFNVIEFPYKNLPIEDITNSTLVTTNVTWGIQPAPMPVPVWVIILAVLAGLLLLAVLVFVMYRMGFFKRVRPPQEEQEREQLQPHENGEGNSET
αvβ6, sequence (P18564 22-788): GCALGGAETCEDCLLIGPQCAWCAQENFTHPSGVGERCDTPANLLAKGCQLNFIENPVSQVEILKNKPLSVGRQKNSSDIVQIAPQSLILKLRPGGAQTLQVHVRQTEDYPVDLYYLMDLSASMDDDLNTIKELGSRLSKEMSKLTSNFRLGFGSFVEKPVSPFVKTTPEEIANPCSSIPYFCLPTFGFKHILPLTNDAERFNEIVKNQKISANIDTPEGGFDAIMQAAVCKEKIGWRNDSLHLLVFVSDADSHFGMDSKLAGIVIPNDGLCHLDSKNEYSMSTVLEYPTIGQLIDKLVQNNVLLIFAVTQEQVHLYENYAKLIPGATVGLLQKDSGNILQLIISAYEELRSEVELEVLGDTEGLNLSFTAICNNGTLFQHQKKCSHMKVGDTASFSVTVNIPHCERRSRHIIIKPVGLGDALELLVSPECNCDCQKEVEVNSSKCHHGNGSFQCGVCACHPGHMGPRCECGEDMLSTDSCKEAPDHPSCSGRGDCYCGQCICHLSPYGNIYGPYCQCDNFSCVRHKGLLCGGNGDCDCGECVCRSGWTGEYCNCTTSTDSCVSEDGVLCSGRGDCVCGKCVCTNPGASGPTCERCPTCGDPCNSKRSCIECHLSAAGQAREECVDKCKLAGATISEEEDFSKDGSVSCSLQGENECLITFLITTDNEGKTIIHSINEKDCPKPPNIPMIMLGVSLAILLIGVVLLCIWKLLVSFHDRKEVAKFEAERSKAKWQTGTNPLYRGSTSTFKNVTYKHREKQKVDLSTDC

Compound: COc1cccc2c1C(=O)c1c(O)c3c(c(O)c1C2=O)C[C@@](O)(C(=O)CO)C[C@@H]3O[C@H]1C[C@H](N)[C@H](O)[C@H](C)O1 [doxorubicin, reference compound]
internalization into H2009 compared with H1299 cells [1]: internalizes into both cell lines equally
pairwise comparison of viability of H2009 and H1299 cells [2]: did not demonstrate any statistical difference

Compound: CC(=O)O[C@H]1C(=O)[C@@]2(C)[C@H]([C@H](OC(=O)c3ccccc3)[C@]3(O)C[C@H](OC(=O)[C@H](O)[C@@H](NC(=O)c4ccccc4)c4ccccc4)C(C)=C1C3(C)C)[C@]1(OC(C)=O)CO[C@@H]1C[C@@H]2O [paclitaxel]
IC50 relative to that of doxorubicin (fold lower) (H2009 cells): 40 fold

binding affinity for αvβ6 (αvβ6): no binding affinity
Compound: DALRLQGTLR [scrambled sequence peptide]

— PMC4053474 (Bioconjugate chemistry, 2008)
